The source of these data is patent US9340574B2, “Inhibitors of protein tyrosine phosphatases” (Indiana University Research and Technology Corporation, priority 2012, dated 2016).

The target in one test is PTP-MEG2 (Homo sapiens (Human), UniProt P43378). Kind of test: pNPP hydrolysis enzyme assay, PTP-MEG2. The test is classed as biochemical. Conditions: for IC50: pNPP substrate, pH 7.0, 25° C., read-out: IC50 for PTP-MEG2. On the procedure:
(§1) Enzyme kinetic assay. PTP activity was assayed using p-nitrophenyl phosphate (pNPP) as a substrate in 3,3-dimethylglutarate buffer (50 mM 3,3-dimethylglutarate, pH 7.0, 1 mM EDTA, 150 mM NaCl, 2 mM DTT, 0.1 mg/mL BSA) at 25° C. The assays were performed in 96-well plates. Normally, to determine the IC50 values, the reaction was initiated by the addition of enzyme (final concentration at 10 nM) to a reaction mixture (0.2 mL) containing 2 mM (Km for the substrate) pNPP with various concentrations of inhibitors. The reaction rate was measured using a SpectraMax Plus 384 Microplate Spectrophotometer (Molecular Devices). To determine the mode of inhibition, the reactions were initiated by the addition of PTP-MEG2 to the reaction mixtures (0.2 mL) containing various concentrations of pNPP with different concentrations of the inhibitor 7. Data were fitted using SigmaPlot Enzyme Kinetics Module (Systat Software, Inc.).
PTP-MEG2 Overexpression, and Purification. The expression vector containing residues 277-582 of PTP-MEG2 catalytic domain was provided by Stefan Knapp at the University of Oxford. For protein expression, transformed cells were grown at 37° C. in Luria broth (LB) containing […] ampicillin for 4 h to an OD600 nm @0.6, and then induced for overnight at 18° C. with 0.4 mM IPTG. Cells were harvested by centrifugation (6500 rpm for 15 min at 4° C.), and the cell pellets from 1.5 L LB medium were suspended in 30 mL of ice-cold lysis buffer consisting of 5 mM imidazole, 500 mM NaCl, 20 mM Tris-HCl (pH 7.9), 0.05 mg/mL trypsin inhibitor and 0.1 mM PMSF. The suspensions were passed twice through a French Press at 1200 psi, and the cell lysates were centrifuged at 4° C. for 30 min at 16,000 rpm. The supernatants were mixed with 2 mL Ni-NTA Agarose (His*Bind Resin) (Qiagen) at 4° C. for 1 hour, then transferred mixture to an empty column. The column was washed by 200 mL binding buffer (5 mM imidazole, 500 mM NaCl, 20 mM Tris-HCl (pH 7.9)), followed by 20 mL wash buffer (20 mM imidazole, 500 mM NaCl, 20 mM Tris-HCl (pH 7.9)), and then eluted with 20 mL elution buffer (200 mM imidazole, 500 mM NaCl, 20 mM Tris-HCl (pH 7.9), 5 mM DTT). The elution was dialyzed for 6 h at 4° C. against 1 L buffer A (50 mM NaCl, 20 mM MES (pH6.0), 1 mM EDTA), and then loaded onto a Mono S column equilibrated at 4° C. with buffer A. The column was washed with 10 ml buffer A and then eluted with a 40 mL linear gradient of 0 to 1M NaCl in buffer A. The PTP-MEG2 was eluted at 0.35 M NaCl. The column fractions were analyzed by measuring the absorbance at 280 nm and by carrying out SDS-PAGE analysis. The fractions were combined, dialyzed against 1 L buffer A and concentrated at 4° C. to 8 mg/mL using an Amicon concentrator and then stored at −80° C.

The target of another test is PTP1B (Homo sapiens (Human), UniProt P18031). The test can be described thus: pNPP hydrolysis enzyme assay, PTP1B. The test is classed as biochemical. The protocol:
as §1

PTP-MEG2, sequence (P43378 277-582): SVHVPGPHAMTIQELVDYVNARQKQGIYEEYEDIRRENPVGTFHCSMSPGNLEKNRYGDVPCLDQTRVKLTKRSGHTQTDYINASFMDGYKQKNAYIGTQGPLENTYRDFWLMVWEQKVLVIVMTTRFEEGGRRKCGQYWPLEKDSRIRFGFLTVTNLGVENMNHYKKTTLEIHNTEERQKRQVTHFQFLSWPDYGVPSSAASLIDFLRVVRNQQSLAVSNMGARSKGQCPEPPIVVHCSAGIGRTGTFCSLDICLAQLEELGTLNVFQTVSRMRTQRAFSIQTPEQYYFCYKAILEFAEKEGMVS
PTP1B, sequence (P18031 whole entry, species assumed): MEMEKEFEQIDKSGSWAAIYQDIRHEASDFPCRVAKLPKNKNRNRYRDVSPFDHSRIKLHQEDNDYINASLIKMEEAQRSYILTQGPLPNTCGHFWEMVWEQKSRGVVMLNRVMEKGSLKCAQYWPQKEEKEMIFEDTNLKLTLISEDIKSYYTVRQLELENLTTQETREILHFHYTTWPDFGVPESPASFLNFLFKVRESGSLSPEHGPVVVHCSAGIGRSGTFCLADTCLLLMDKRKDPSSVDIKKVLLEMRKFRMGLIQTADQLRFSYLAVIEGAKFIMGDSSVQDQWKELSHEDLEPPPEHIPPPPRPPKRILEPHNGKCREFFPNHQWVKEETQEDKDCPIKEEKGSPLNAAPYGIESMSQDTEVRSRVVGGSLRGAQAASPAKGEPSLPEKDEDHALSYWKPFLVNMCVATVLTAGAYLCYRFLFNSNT

Broadly, the IC50 is the point on the concentration scale where inhibition reaches its midpoint. For the molecule `CC(=O)NC(Cc1ccc(C(F)(F)P(=O)(O)O)cc1)C(=O)NC(CCCNC(=O)c1cccc(I)c1)C(N)=O` (centres unmarked) [Compound 3], on PTP-MEG2, the IC50 was 900 ± 20 nM.
In the case of `Cc1ccc(C(=O)NC(Cc2ccc(C(F)(F)P(=O)(O)O)cc2)C(=O)NC(CCCNC(=O)c2cccc(I)c2)C(N)=O)cc1Br` (centres unmarked) [Compound 5], the “improvement in potency / binding affinity for PTP-MEG2 over the preceding lead” value at PTP-MEG2 (Compound 5 vs Compound 3, Compound 7 vs Compound 5) stood at 3.3 fold. Further, the IC50 on PTP-MEG2 worked out at 270 ± 70 nM; on PTP1B (pNPP substrate) it was 3.4 ± 0.08 µM. For the same molecule, on PTP1B (ratio of IC50 values), the “selectivity for PTP-MEG2 over PTP1B” value amounted to 12.6 fold.
